Measurements from US20120245137A1 (Zalicus Pharmaceuticals Ltd., priority 2009, published 2012).

Assays:
Format in all cases: cell-based
[1] = target: N-type calcium channel subunits (α1B, α2δ, and β3a) (Homo sapiens, UniProt Q00975); test: Block of Cav2.2 channel, whole cell voltage clamp, manual and PatchXpress; conditions: Table 5; table follows Assay Example 3 (whole cell voltage clamp / PatchXpress); assay not given
Summary of the method: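 Percent block taken as current amplitude ratio with versus without compound, applied in rising doses; IC50 fitted where one cell received multiple doses. Protocol: 50 ms pulses to +20 mV at 0.067 Hz from […] or −90 mV holding; P/n leak subtraction, no junction-potential correction; manual and PatchXpress recordings.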

[2] = target: human α1H T-type channels (Homo sapiens, UniProt O95180); test: T-type calcium channel block, whole cell patch clamp, α1H; conditions: HEK cells stably expressing human α1H; mainly non-inactivated protocol; values above 10,000 nM represented as 10000
Summary of the method: (§1)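 Blockade of T-type current was measured in human α1G- or α1H-expressing HEK 293 cells using whole-cell recording with ~5 MΩ pipettes. Test compounds, dissolved in external solution containing 0.1-0.01% DMSO, were applied close to the cell, and block was examined under both non-inactivating and inactivating voltage protocols.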

[3] = target: human α1G T-type channels (Homo sapiens, UniProt O43497); test: T-type calcium channel block, whole cell patch clamp, α1G; conditions: HEK cells stably expressing human α1G; mainly non-inactivated protocol; values above 10,000 nM represented as 10000
Summary of the method: as §1

Sequence of human α1H T-type channels (O95180 whole entry): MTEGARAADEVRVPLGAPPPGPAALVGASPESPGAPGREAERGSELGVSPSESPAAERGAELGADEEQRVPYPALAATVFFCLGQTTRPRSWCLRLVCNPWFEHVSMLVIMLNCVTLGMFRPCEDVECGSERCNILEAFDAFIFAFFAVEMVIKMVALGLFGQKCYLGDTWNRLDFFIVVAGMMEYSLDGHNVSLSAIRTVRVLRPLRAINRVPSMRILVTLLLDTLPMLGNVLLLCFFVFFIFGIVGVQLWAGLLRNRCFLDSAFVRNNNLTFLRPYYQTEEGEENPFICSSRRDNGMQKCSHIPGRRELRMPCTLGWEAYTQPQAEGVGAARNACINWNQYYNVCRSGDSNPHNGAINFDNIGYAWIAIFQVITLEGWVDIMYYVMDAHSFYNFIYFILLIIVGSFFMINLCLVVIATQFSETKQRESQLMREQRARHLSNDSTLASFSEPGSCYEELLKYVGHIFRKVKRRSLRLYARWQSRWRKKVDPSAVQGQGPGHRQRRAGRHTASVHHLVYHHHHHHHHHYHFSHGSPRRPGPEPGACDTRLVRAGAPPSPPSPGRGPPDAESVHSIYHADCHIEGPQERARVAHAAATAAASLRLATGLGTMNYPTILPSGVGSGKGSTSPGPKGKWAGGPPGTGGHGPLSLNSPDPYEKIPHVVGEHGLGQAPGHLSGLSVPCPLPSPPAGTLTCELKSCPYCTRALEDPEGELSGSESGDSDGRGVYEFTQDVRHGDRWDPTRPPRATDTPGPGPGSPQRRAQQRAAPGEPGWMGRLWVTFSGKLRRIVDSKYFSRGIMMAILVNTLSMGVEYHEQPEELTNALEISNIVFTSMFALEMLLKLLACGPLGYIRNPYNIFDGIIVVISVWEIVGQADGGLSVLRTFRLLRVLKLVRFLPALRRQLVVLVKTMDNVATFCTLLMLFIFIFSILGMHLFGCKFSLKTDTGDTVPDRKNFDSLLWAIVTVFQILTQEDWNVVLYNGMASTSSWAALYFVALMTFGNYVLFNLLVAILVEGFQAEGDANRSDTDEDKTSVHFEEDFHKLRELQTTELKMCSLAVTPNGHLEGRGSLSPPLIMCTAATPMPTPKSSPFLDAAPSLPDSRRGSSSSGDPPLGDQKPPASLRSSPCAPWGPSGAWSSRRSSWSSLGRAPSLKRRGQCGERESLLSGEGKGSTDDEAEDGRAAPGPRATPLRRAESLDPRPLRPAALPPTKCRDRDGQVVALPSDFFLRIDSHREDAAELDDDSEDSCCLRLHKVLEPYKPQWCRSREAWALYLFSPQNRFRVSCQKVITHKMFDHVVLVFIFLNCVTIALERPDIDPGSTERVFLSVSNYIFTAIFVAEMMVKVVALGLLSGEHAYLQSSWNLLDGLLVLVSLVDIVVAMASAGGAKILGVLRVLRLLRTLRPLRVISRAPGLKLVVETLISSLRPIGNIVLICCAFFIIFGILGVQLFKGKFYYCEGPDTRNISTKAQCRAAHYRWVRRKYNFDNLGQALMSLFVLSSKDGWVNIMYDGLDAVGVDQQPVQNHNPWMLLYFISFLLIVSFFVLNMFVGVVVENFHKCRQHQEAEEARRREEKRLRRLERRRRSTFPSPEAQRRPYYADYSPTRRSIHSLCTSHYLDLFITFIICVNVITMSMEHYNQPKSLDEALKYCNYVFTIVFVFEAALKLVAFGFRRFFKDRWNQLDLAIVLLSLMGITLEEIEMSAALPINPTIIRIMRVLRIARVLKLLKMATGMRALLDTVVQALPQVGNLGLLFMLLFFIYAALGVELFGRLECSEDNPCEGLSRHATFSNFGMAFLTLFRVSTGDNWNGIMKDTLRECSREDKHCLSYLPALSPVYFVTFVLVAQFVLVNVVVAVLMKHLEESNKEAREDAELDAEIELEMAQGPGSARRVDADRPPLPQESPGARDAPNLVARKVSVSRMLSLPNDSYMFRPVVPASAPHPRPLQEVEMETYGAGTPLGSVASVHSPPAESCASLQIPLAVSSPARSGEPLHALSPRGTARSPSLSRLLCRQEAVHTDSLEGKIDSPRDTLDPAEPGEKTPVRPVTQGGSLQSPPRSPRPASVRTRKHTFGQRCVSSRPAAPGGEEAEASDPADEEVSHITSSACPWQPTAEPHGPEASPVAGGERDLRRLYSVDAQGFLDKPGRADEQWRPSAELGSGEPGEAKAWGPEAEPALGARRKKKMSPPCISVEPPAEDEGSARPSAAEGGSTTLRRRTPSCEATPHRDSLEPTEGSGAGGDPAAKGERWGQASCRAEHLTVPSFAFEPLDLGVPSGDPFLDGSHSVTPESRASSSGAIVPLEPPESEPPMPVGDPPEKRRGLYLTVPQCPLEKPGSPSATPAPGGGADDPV
Sequence of human α1G T-type channels (O43497 whole entry): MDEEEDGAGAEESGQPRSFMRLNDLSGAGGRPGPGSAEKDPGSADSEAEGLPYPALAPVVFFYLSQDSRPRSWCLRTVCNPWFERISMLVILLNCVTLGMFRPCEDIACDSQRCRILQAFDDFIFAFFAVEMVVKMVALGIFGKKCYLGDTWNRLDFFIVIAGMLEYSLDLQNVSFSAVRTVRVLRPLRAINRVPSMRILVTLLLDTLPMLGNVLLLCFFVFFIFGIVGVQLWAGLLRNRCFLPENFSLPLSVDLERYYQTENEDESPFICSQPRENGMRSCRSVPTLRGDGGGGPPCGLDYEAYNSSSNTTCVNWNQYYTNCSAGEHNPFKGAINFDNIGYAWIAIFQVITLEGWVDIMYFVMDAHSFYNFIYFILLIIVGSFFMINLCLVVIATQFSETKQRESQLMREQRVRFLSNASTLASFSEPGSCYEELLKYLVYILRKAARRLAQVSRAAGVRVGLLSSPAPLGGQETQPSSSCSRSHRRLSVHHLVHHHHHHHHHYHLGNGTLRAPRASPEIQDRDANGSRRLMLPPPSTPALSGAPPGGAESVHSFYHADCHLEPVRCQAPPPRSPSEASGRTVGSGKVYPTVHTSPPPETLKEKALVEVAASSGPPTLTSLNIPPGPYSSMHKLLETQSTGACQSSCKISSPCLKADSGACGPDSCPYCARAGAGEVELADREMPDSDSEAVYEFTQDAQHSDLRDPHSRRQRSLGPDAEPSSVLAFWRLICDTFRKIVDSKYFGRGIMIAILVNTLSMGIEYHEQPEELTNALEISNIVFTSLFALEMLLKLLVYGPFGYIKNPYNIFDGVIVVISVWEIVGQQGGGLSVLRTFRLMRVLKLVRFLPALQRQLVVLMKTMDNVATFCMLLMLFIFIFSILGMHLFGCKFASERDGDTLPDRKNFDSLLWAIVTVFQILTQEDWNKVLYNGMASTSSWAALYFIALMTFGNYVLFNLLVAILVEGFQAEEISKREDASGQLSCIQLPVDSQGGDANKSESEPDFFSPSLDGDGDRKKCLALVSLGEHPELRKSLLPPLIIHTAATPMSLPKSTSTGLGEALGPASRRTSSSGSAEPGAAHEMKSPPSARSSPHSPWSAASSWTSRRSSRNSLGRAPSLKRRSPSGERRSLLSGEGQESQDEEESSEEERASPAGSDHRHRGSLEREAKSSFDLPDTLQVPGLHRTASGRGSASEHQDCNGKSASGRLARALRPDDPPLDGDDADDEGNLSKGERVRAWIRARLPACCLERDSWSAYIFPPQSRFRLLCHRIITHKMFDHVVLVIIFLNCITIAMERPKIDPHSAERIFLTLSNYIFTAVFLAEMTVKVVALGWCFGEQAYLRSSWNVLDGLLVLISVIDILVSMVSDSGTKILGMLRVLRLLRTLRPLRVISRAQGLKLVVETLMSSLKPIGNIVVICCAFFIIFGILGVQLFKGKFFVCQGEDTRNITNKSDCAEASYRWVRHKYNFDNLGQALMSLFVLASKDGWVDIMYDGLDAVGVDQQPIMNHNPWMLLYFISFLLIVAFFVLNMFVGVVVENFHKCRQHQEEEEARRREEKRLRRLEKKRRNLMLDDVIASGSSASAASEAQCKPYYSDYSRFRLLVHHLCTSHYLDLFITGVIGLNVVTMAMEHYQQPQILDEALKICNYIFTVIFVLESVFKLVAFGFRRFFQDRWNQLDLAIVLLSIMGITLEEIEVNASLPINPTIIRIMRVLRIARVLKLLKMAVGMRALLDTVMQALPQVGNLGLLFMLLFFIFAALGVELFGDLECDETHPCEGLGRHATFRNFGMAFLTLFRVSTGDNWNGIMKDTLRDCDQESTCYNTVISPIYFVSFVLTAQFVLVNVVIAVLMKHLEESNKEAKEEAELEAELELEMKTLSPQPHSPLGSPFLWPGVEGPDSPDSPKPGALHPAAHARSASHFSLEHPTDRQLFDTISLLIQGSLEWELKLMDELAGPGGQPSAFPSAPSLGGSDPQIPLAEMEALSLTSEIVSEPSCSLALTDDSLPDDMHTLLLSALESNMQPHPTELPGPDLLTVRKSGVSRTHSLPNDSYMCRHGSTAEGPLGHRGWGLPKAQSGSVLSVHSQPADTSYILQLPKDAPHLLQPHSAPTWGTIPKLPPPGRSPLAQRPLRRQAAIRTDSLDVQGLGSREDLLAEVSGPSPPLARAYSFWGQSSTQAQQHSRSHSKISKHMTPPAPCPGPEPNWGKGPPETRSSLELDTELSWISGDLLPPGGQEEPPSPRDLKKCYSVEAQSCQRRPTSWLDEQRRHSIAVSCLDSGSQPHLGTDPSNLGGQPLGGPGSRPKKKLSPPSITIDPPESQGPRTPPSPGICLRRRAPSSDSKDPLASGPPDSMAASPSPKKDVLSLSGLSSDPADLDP

Row | SMILES | IC50 [1] [nM] | IC50 [2] [nM] | IC50 [3] [nM]
1 | O=C(N[C@H]1CC[C@@H](S(=O)(=O)c2cc(F)cc(C(F)(F)F)c2)CC1)c1ccc(Cl)c(OC(F)(F)F)c1 [Compound 322, 4-chloro-N-((1S,4S)-4-(3-fluoro-5-(trifluoromethyl)phenylsulfonyl)cyclohexyl)-3-(trifluoromethoxy)benzamide] | 500 | 630 | 3260
2 | O=C(N[C@H]1CC[C@@H](S(=O)(=O)c2cc(F)cc(C(F)(F)F)c2)CC1)c1ccnn1CC(F)(F)F [Compound 323, N-((1S,4S)-4-(3-fluoro-5-(trifluoromethyl)phenylsulfonyl)cyclohexyl)-1-(2,2,2-trifluoroethyl)-1Hpyrazole-5-carboxamide] | 2410 | 720 | 1350
3 | O=C(N[C@H]1CC[C@@](F)(S(=O)(=O)c2cc(F)cc(C(F)(F)F)c2)CC1)c1cc(C(F)(F)F)n[nH]1 [Compound 324, N-((1S,4S)-4-fluoro-4-(3-fluoro-5-(trifluoromethyl)phenylsulfonyl)cyclohexyl)-3-(trifluoromethyl)-1H-pyrazole-5-carboxamide] | 1060 | 1220 | 3180
4 | O=C(N[C@H]1CC[C@@](F)(S(=O)(=O)c2cc(F)cc(C(F)(F)F)c2)CC1)c1ccc(F)c(C(F)(F)F)c1 [Compound 325, 4-fluoro-N-((1S,4S)-4-fluoro-4-(3-fluoro-5-(trifluoromethyl)phenylsulfonyl)cyclohexyl)-3-(trifluoromethyl)benzamide] | 320 | 1330 | 2400
5 | Cn1nc(C(F)(F)F)cc1C(=O)N[C@H]1CC[C@@](F)(S(=O)(=O)c2cc(F)cc(C(F)(F)F)c2)CC1 [Compound 327, N-((1S,4S)-4-fluoro-4-(3-fluoro-5-(trifluoromethyl)phenylsulfonyl)cyclohexyl)-1-methyl-3-(trifluoromethyl)-1Hpyrazole-5-carboxamide] | 630 | 750 | 2790
6 | O=C(N[C@H]1CC[C@@](F)(S(=O)(=O)c2cc(F)cc(C(F)(F)F)c2)CC1)c1cc(C(F)(F)F)ccn1 [Compound 328, N-((1S,4S)-4-fluoro-4-(3-fluoro-5-(trifluoromethyl)phenylsulfonyl)cyclohexyl)-4-(trifluoromethyl)picolinamide] | 710 | 2470 | > 10000
7 | O=C(N[C@H]1CC[C@@](F)(S(=O)(=O)c2cc(F)cc(C(F)(F)F)c2)CC1)c1ccc(F)c(Cl)c1 [Compound 329, 3-chloro-4-fluoro-N-((1S,4S)-4-fluoro-4-(3-fluoro-5-(trifluoromethyl)phenylsulfonyl)cyclohexyl) benzamide] | 350 | > 10000 | > 10000
8 | CS(=O)(=O)c1cc(C(F)(F)F)ccc1C(=O)N[C@H]1CC[C@@](F)(S(=O)(=O)c2cc(F)cc(C(F)(F)F)c2)CC1 [Compound 330, N-((1S,4S)-4-fluoro-4-(3-fluoro-5-(trifluoromethyl)phenylsulfonyl)cyclohexyl)-2-(methylsulfonyl)-4-(trifluoromethyl)benzamide] | 1020 | 930 | 8560
9 | CS(=O)(=O)c1cc(C(F)(F)F)cnc1C(=O)N[C@H]1CC[C@@](F)(S(=O)(=O)c2cc(F)cc(C(F)(F)F)c2)CC1 [Compound 331, N-((1S,4S)-4-fluoro-4-(3-fluoro-5-(trifluoromethyl)phenylsulfonyl)cyclohexyl)-3-(methylsulfonyl)-5-(trifluoromethyl)picolinamide] | 1290 | 1510 | 2650
10 | O=C(N[C@H]1CC[C@@](F)(S(=O)(=O)c2cc(F)cc(C(F)(F)F)c2)CC1)c1cn2cc(C(F)(F)F)ccc2n1 [Compound 332, N-((1S,4S)-4-fluoro-4-(3-fluoro-5-(trifluoromethyl)phenylsulfonyl)cyclohexyl)-6-(trifluoromethyl)imidazo[l,2-a]pyridine-2-carboxamide] | 620 | 780 | 1560
11 | O=C1c2cc(C(F)(F)F)nn2CCN1[C@H]1CC[C@@](F)(S(=O)(=O)c2cc(F)cc(C(F)(F)F)c2)CC1 [Compound 333, 5-((1S,4S)-4-fluoro-4-(3-fluoro-5-(trifluoromethyl)phenylsulfonyl)cyclohexyl)-2-(trifluoromethyl)-6,7-dihydropyrazolo[l,5-a]pyrazin-4(5H)-one] | 180 | 960 | 1820
12 | CN(C(=O)c1ccc(F)c(C(F)(F)F)c1)[C@H]1CC[C@@](F)(S(=O)(=O)c2cc(F)cc(C(F)(F)F)c2)CC1 [Compound 334, 4-fluoro-N-((1S,4S)-4-fluoro-4-(3-fluoro-5-(trifluoromethyl)phenylsulfonyl)cyclohexyl)-N-methyl-3-(trifluorornethyl) benzamide] | 360 | 2390 | > 10000
13 | CN(C(=O)c1ccc(F)c(Cl)c1)[C@H]1CC[C@@](F)(S(=O)(=O)c2cc(F)cc(C(F)(F)F)c2)CC1 [Compound 335, 3-chloro-4-fluoro-N-((1S,4S)-4-fluoro-4-(3-fluoro-5-(trifluoromethyl)phenylsulfonyl)cyclohexyl)-N-methylbenzamide] | 520 | 4710 | > 10000
14 | CN(C(=O)c1ccc(C(F)(F)F)cc1S(C)(=O)=O)[C@H]1CC[C@@](F)(S(=O)(=O)c2cc(F)cc(C(F)(F)F)c2)CC1 [Compound 336, N-((1S,4S)-4-fluoro-4-(3-fluoro-5-(trifluoromethyl)phenylsulfonyl)cyclohexyl)-N-methyl-2-(methylsulfonyl)-4-(trifluoromethyl)benzamide] | 1060 | 1350 | 690
15 | CN(C(=O)c1ncc(C(F)(F)F)cc1S(C)(=O)=O)[C@H]1CC[C@@](F)(S(=O)(=O)c2cc(F)cc(C(F)(F)F)c2)CC1 [Compound 337, N-((1S,4S)-4-fluoro-4-(3-fluoro-5-(trifluoromethyl)phenylsulfonyl)cyclohexyl)-N-methyl-3-(methylsulfonyl)-5-(trifluoromethyl)picolinarnide] | 910 | 8660 | > 10000
16 | CN(C(=O)c1cn2cc(C(F)(F)F)ccc2n1)[C@H]1CC[C@@](F)(S(=O)(=O)c2cc(F)cc(C(F)(F)F)c2)CC1 [Compound 338, N-((1S,4S)-4-fluoro-4-(3-fluoro-5-(trifluoromethyl)phenylsulfonyl)cyclohexyl)-N-methyl-6-(trifluoromethyl) imidazo[1,2-a]pyridine-2-carboxamide] | 770 | 6790 | > 10000
17 | CC(C)S(=O)(=O)c1cc(C(F)(F)F)cnc1C(=O)N[C@H]1CC[C@@H](S(=O)(=O)c2cccc(C(F)(F)F)c2)CC1 [Compound 339, 3-(isopropylsulfonyl)-5-(trifluoromethyl)-N-((1S,4S)-4-(3-(trifluoromethyl)phenylsulfonyl)cyclohexyl) picolinamide] | 220 | 3330 | 5270
18 | CC(C)S(=O)(=O)c1cc(C(F)(F)F)cnc1C(=O)N[C@H]1CC[C@H](S(=O)(=O)c2cccc(C(F)(F)F)c2)CC1 [Compound 340, 3-(isopropylsulfonyl)-5-(trifluoromethyl)-N-((1R,4R)-4-(3-(trifluoromethyl)phenylsulfonyl)cyclohexyl) picolinamide] | 2010 | 3170 | 9870
19 | CC(C)S(=O)(=O)c1cc(C(F)(F)F)cnc1C(=O)N[C@H]1CC[C@H](CS(=O)(=O)c2cccc(C(F)(F)F)c2)CC1 [Compound 341, 3-(isopropylsulfonyl)-5-(trifluoromethyl)-N-((1R,4R)-4-((3-(trifluoromethyl)phenylsulfonyl)methyl)cyclohexyl)picolinamide] | 510 | 2020 | 2190
20 | CC(C)S(=O)(=O)c1cc(C(F)(F)F)cnc1C(=O)N[C@H]1CC[C@@H](CS(=O)(=O)c2cccc(C(F)(F)F)c2)CC1 [Compound 342, 3-(isopropylsulfonyl)-5-(trifluoromethyl)-N-((1S,4S)-4-((3-(trifluoromethyl)phenylsulfonyl)methyl)cyclohexyl)picolinamide] | 720 | 760 | 1710
21 | O=C(N[C@H]1C[C@H](CS(=O)(=O)c2cccc(C(F)(F)F)c2)C1)c1ccc(Cl)c(F)c1 [Compound 343, 4-chloro-3-fluoro-N-((1R,3R)-3-((3-(trifluoromethyl)phenylsulfonyl)methyl)cyclobutyl)benzamide] | 1450 | 270 | 630
22 | O=C(N[C@H]1C[C@H](CS(=O)(=O)c2cccc(C(F)(F)F)c2)C1)c1cc(F)cc(Cl)c1 [Compound 344, 3-chloro-5-fluoro-N-((1R,3R)-3-((3-(trifluoromethyl)phenylsulfonyl)methyl)cyclobutyl)benzamide] | 680 | > 10000 | > 10000
23 | O=C(N[C@H]1C[C@H](CS(=O)(=O)c2cccc(C(F)(F)F)c2)C1)c1ccc(F)c(C(F)(F)F)c1 [Compound 345, 4-fluoro-3-(trifluoromethyl)-N-((1R,3R)-3-((3-(trifluoromethyl)phenylsulfonyl)methyl)cyclobutyl)benzamide] | 580 | 1930 | 5530
24 | O=C(N[C@H]1C[C@H](CS(=O)(=O)c2cccc(C(F)(F)F)c2)C1)c1ccc(C(F)(F)F)nc1 [Compound 346, 6-(trifluoromethyl)-N-((1R,3R)-3-((3-(trifluoromethyl)phenylsulfonyl)methyl)cyclobutyl)nicotinamide] | 5540 | 410 | 1260
